From patent publication US20220117884A1, “Methods and Compostitions for Enhancing the Viability of Microneedle Pores” (priority 2007, published 2022)

Assays:
[1] = Transepidermal water loss (TEWL) study of microneedle pore viability with COX inhibitor gels under occlusion; assay type: in vivo; conditions: gel re-applied daily under occlusion; 5 day study, trial 2
Experimental: Two trials were completed with subject 1 and one trial was completed with subject 2. During the initial trial, subject one was tested for 7 days with only Solaraze® Gel. 100 microneedle arrays were placed on each test site and covered with gel. The gel was then protected with an occlusive backing membrane (3M™ Scotchpak™ 9733 2.05 mil polyester film, St. Paul, Minn.) and secured to the test site with Bioclusive* tape (Johnson and Johnson Medical Ltd, Gargrave, Skipton, UK). Along with gel test sites, control sites with and without microneedle insertions were tested minus gel. The control sites were treated in the same manner with gel minus the 100 microneedle insertions. The initial trial lasted for 7 days followed by a 5 day study.
In trial 2, the same procedure was performed on a different test and control sites using each of the following gel formulations: placebo, Solaraze® Gel, 3% diclofenac, 3% celecoxib, 10% ibuprofen, 10% ketoprofen, and controls with and without microneedle treatment. Each day, the protective covering was removed, areas were blotted 3 times with a Kimwipe® (Kimberly-Clark, Roswell, Ga.) to remove gel and trapped moisture and TEWL readings were made with an RG1 Evaporimeter (cyberDERM, Broomall, Pa.). The treated areas had the formula re-applied and immediately covered to prevent closure of the microneedle created pores.

[2] = used in conjunction with microneedles; cited from earlier work
[3] = hairless guinea pigs, after microneedle exposure and occlusion; cited from earlier work

For `O=C(O)Cc1ccccc1Nc1c(Cl)cccc1Cl` [diclofenac], the “enhancement in pore viability (TEWL), microneedle-treated areas versus control areas” value [1] was “enhanced viability of microneedle pores”.

For `O=C1CC[C@@]2(O)[C@H]3Cc4ccc(O)c5c4[C@@]2(CCN3CC2CC2)[C@H]1O5` [naltrexone], the “time for which steady state naltrexone concentrations remained” value [2] is given as 48 h and the “time until steady state naltrexone concentrations were achieved” value [2] is given as “two”.

In the case of `Cl.Oc1ccc2c3c1O[C@H]1[C@H](O)CC[C@@]4(O)[C@@H](C2)N(CC2CC2)CC[C@]314` [6(3-naltrexol hydrochloride], the “duration of significant enhancement in microneedle pore viability compared to untreated skin” value [3] is listed as 48 h.
